Measurements from US7202241B2, “Benzoxazine derivatives and uses thereof” (Roche Palo Alto LLC, priority 2003, dated 2007).

Biological target: T1, recombinant human 5-HT6 receptor (Homo sapiens, UniProt P50406)
T1 construct: expressed in transfected cells; membranes
Assay: in vitro radioligand binding, [3H]LSD competition in membranes of HEK293 cells expressing 5-HT6
Conditions: [3H]LSD (5 nM) displacement, HEK293 cell membranes, 60 min at 37° C., pH 7.4
Description: This example illustrates in vitro radioligand binding studies of compound of formula (I).
The binding activity of compounds of this invention in vitro was determined as follows. Duplicate determinations of ligand affinity are made by competing for binding of [^3H]LSD in cell membranes derived from HEK293 cells stably expressing recombinant human 5-HT6 receptor. This cell line was prepared by the method described by Monsma et al., Molecular Pharmacology, Vol. 43 pp. 320–327 (1993).
All determinations were made in assay buffer containing 50 mM Tris-HCl, 10 mM MgSO4, 0.5 mM EDTA, 1 mM ascorbic acid, pH 7.4 at 37° C., in a 250 microliter reaction volume. Assay tubes containing [^3H] LSD (5 nM), competing ligand, and membrane were incubated in a shaking water bath for 60 min. at 37° C., filtered onto Packard GF-B plates (pre-soaked with 0.3% PEI) using a Packard 96 well cell harvester and washed 3 times in ice cold 50 mM Tris-HCl. Bound [^3H] LSD was determined as radioactive counts per minute using Packard TopCount.
Displacement of [3H]LSD from the binding sites was quantified by fitting concentration-binding data to a 4-parameter logistic equation:
[formula] where Hill is the Hill slope, [ligand] is the concentration of competing radioligand and IC50 is the concentration of radioligand producing half-maximal specific binding of radioligand. The specific binding window is the difference between the Bmax and the basal parameters.

T1 sequence (P50406 whole entry): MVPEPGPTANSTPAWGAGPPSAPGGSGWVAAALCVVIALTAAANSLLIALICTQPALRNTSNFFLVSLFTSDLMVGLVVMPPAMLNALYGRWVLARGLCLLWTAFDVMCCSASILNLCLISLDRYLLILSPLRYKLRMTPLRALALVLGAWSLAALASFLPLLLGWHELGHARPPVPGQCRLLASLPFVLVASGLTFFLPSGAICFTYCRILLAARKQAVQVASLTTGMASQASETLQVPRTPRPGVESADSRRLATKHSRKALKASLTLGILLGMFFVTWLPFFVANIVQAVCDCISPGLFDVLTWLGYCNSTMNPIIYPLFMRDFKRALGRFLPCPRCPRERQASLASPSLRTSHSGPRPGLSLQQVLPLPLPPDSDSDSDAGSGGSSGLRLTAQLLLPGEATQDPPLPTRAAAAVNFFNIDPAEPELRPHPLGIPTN

Row | SMILES | Ki [nM] | pKi
1 | O=S(=O)(c1ccccc1Cl)N1CCOc2c(N3CCNCC3)cccc21 [4-(2-Chloro-benzenesulfonyl)-8-piperazin-1-yl-3,4-dihydro-2H-benzo[1,4]oxazine] | 2.14 | 
2 | CC1(C)CN(S(=O)(=O)c2ccccc2F)c2cccc(N3CCNCC3)c2O1 [4-(2-Fluoro-benzenesulfonyl)-2,2-dimethyl-8-piperazin-1-yl-3,4-dihydro-2H-benzo[1,4]oxazine] | 0.209 | 
3 | O=S(=O)(c1ccccc1F)N1CCOc2c(N3CCNCC3)cccc21 [4-(2-Fluoro-benzenesulfonyl)-8-piperazin-1-yl-3,4-dihydro-2H-benzo[1,4]oxazine] | 1.26 | 
4 | O=S(=O)(c1cccc(Cl)c1)N1CC2(CCC2)Oc2c(N3CCNCC3)cccc21 [4-(3-Chloro-benzenesulfonyl)-2,2-spiro-cyclobutan-8-piperazin-1-yl-3,4-dihydro-2H-benzo[1,4]oxazine] |  | 9.30
5 | Cc1cc(N2CCNCC2)c2c(c1)N(S(=O)(=O)c1cccc(F)c1)CC(C)(C)O2 [4-(3-Fluoro-benzenesulfonyl)-2,2,6-trimethyl-8-piperazinyl-yl-3,4-dihydro-2H-benzo[1,4]oxazine] | 0.407 | 
6 | O=S(=O)(c1cccc(F)c1)N1CC2(CCC2)Oc2c(N3CCNCC3)cccc21 [4-(3-Fluoro-benzenesulfonyl)-2,2-spiro-cyclobutan-8-piperazin-1-yl-3,4-dihydro-2H-benzo[1,4]oxazine] | 1.17 | 
7 | Cc1cc(N2CCNCC2)c2c(c1)N(S(=O)(=O)c1cccc(F)c1)CCO2 [4-(3-Fluoro-benzenesulfonyl)-6-methyl-8-piperazin-1-yl-3,4-dihydro-2H-benzo[1,4]oxazine] | 2 | 
8 | O=S(=O)(c1cccc(F)c1)N1CCOc2c(N3CCNCC3)cccc21 [4-(3-Fluoro-benzenesulfonyl)-8-piperazin-1-yl-3,4-dihydro-2H-benzo[1,4]oxazine] | 11.2 | 
9 | CC1(C)CN(S(=O)(=O)c2ccccc2F)c2cc(F)cc(N3CCNCC3)c2O1 [6-Fluoro-4-(2-fluoro-benzenesulfonyl)-2,2-dimethyl-8-piperazin-1-yl-3,4-dihydro-2H-benzo[1,4]oxazine] | 0.209 | 
10 | O=S(=O)(c1ccccc1F)N1CCOc2c(N3CCNCC3)cc(F)cc21 [6-Fluoro-4-(2-fluoro-benzenesulfonyl)-8-piperazin-1-yl-3,4-dihydro-2H-benzo[1,4]oxazine] | 0.724 | 
